Reference: patent publication US20230183640A1, “METABOLIC INHIBITORS WITH EFFICACY FOR INHIBITING SULFIDE PRODUCTION IN HARSH ENVIRONMENTS” (MC (US) 3 LLC, priority 2020, published 2023)

Key:
Experiment in all cases: Log (Growth) efficacy in anaerobic conditions, non-SRB bacteria
Type in all cases: cell-based
Escherichia coli 8739 = system: Escherichia coli 8739
Protocol: (§1) Enumerations were done at each time point, which included 0 hour, 1 hour, 4 hours and 24 hours. Enumeration plates were made to determine the log growth in each dosed sample. For this process, enumeration plates were prepared by adding 180 μL fresh TSB. 20 μL was taken from each well of the challenge plates and transferred to the enumeration plates using a 20-200 μL multichannel pipette. Enumeration plates were mixed three times using the multichannel pipette and serial diluted down the plate tenfold (20 μL into 180 μL). This serial dilution process was repeated for all challenge plate rows giving a total of 6 enumeration plates. These enumeration plates were read after 24-hours and by counting the number of turbid wells in a row.
(§2) Klebsiella pneumoniae 13883, Enterobacter aerogenes 13048, Escherichia coli 8739, and Enterococcus faecalis 29212 cultures were made by adding one loop from a freezer stock to 10 mL of fresh Phenol Red Media. These were grown anaerobically at 30° C. for 24 hours.
(§3) Following the 24-hour incubation, each culture was diluted to 1:10 in fresh Phenol Red Media. Using these cultures, two deep well plates were prepared. Edge wells were not used due to their inherent variability and evaporation of the media. Each of the components were added at their respective concentrations for a final volume of 250 μL per well. In Table 9, the concentrations of the compound C1 used for the experiments are listed. Each experiment was done with at least three replicates for different treatments and non-treatment controls. Plates were then sealed with a titer-top and incubated at room temperature in anaerobic chamber. Enumerations were conducted at 0 hour, 1 hour, 4 hours, and 24 hours. The process for these enumerations was the same as that done for example 2; however, utilizing phenol red media instead of tryptic soy broth.

[1] = system: Klebsiella pneumoniae 13883
Protocol: as §1, §2, §3

[2] = system: Enterobacter aerogenes 13048
Protocol: as §1, §2, §3

[3] = system: Enterococcus faecalis 29212
Protocol: as §1, §2, §3

O=C(CN1C(=O)c2cccc3cccc(c23)C1=O)NO [C1]
Log (Growth) (Escherichia coli 8739; 0 hours, 15.625 PPM): 7.000
Log (Growth) (Escherichia coli 8739; 0 hours, 31.25 PPM): 6.667
Log (Growth) (Escherichia coli 8739; 0 hours, 62.5 PPM): 6.667
Log (Growth) (Escherichia coli 8739; 0 hours, 125 PPM): 6.333
Log (Growth) (Escherichia coli 8739; 0 hours, 250 PPM): 6.000
Log (Growth) (Escherichia coli 8739; 0 hours, 500 PPM): 6.333
Log (Growth) (Escherichia coli 8739; 1 hour, 15.625 PPM): 7.000
Log (Growth) (Escherichia coli 8739; 1 hour, 31.25 PPM): 6.000
Log (Growth) (Escherichia coli 8739; 1 hour, 62.5 PPM): 6.333
Log (Growth) (Escherichia coli 8739; 1 hour, 125 PPM): 6.000
Log (Growth) (Escherichia coli 8739; 1 hour, 250 PPM): 6.000
Log (Growth) (Escherichia coli 8739; 1 hour, 500 PPM): 6.000
Log (Growth) (Escherichia coli 8739; 4 hours, 15.625 PPM): 6.667
Log (Growth) (Escherichia coli 8739; 4 hours, 31.25 PPM): 6.667
Log (Growth) (Escherichia coli 8739; 4 hours, 62.5 PPM): 5.333
Log (Growth) (Escherichia coli 8739; 4 hours, 125 PPM): 4.667
Log (Growth) (Escherichia coli 8739; 4 hours, 250 PPM): 5.000
Log (Growth) (Escherichia coli 8739; 4 hours, 500 PPM): 4.333
Log (Growth) (Escherichia coli 8739; 24 hours, 15.625 PPM): 6.000
Log (Growth) (Escherichia coli 8739; 24 hours, 31.25 PPM): 4.000
Log (Growth) (Escherichia coli 8739; 24 hours, 62.5 PPM): 2.667
Log (Growth) (Escherichia coli 8739; 24 hours, 125 PPM): 3.000
Log (Growth) (Escherichia coli 8739; 24 hours, 250 PPM): 4.000
Log (Growth) (Escherichia coli 8739; 24 hours, 500 PPM): 2.667
Log (Growth) ([1]; 0 hours, 15.625 PPM): 6.667
Log (Growth) ([1]; 0 hours, 31.25 PPM): 6.667
Log (Growth) ([1]; 0 hours, 62.5 PPM): 6.667
Log (Growth) ([1]; 0 hours, 125 PPM): 6.667
Log (Growth) ([1]; 0 hours, 250 PPM): 6.000
Log (Growth) ([1]; 0 hours, 500 PPM): 6.000
Log (Growth) ([1]; 1 hour, 15.625 PPM): 6.667
Log (Growth) ([1]; 1 hour, 31.25 PPM): 5.667
Log (Growth) ([1]; 1 hour, 62.5 PPM): 5.000
Log (Growth) ([1]; 1 hour, 125 PPM): 3.667
Log (Growth) ([1]; 1 hour, 250 PPM): 4.333
Log (Growth) ([1]; 1 hour, 500 PPM): 4.333
Log (Growth) ([1]; 4 hours, 15.625 PPM): 3.333
Log (Growth) ([1]; 4 hours, 31.25 PPM): 2.000
Log (Growth) ([1]; 4 hours, 62.5 PPM): 2.000
Log (Growth) ([1]; 4 hours, 125 PPM): 1.667
Log (Growth) ([1]; 4 hours, 250 PPM): 2.333
Log (Growth) ([1]; 4 hours, 500 PPM): 2.000
Log (Growth) ([1]; 24 hours, 15.625 PPM): 6.333
Log (Growth) ([1]; 24 hours, 31.25 PPM): 4.667
Log (Growth) ([1]; 24 hours, 62.5 PPM): 5.667
Log (Growth) ([1]; 24 hours, 125 PPM): 1.667
Log (Growth) ([1]; 24 hours, 250 PPM): 0.000
Log (Growth) ([1]; 24 hours, 500 PPM): 0.000
Log (Growth) ([2]; 0 hours, 15.625 PPM): 6.333
Log (Growth) ([2]; 0 hours, 31.25 PPM): 6.667
Log (Growth) ([2]; 0 hours, 62.5 PPM): 6.333
Log (Growth) ([2]; 0 hours, 125 PPM): 6.333
Log (Growth) ([2]; 0 hours, 250 PPM): 6.667
Log (Growth) ([2]; 0 hours, 500 PPM): 6.333
Log (Growth) ([2]; 1 hour, 15.625 PPM): 7.000
Log (Growth) ([2]; 1 hour, 31.25 PPM): 6.333
Log (Growth) ([2]; 1 hour, 62.5 PPM): 7.000
Log (Growth) ([2]; 1 hour, 125 PPM): 6.000
Log (Growth) ([2]; 1 hour, 250 PPM): 5.667
Log (Growth) ([2]; 1 hour, 500 PPM): 5.667
Log (Growth) ([2]; 4 hours, 15.625 PPM): 7.333
Log (Growth) ([2]; 4 hours, 31.25 PPM): 7.000
Log (Growth) ([2]; 4 hours, 62.5 PPM): 4.667
Log (Growth) ([2]; 4 hours, 125 PPM): 5.000
Log (Growth) ([2]; 4 hours, 250 PPM): 5.333
Log (Growth) ([2]; 4 hours, 500 PPM): 5.333
Log (Growth) ([2]; 24 hours, 15.625 PPM): 7.667
Log (Growth) ([2]; 24 hours, 31.25 PPM): 6.667
Log (Growth) ([2]; 24 hours, 62.5 PPM): 6.333
Log (Growth) ([2]; 24 hours, 125 PPM): 6.000
Log (Growth) ([2]; 24 hours, 250 PPM): 6.333
Log (Growth) ([2]; 24 hours, 500 PPM): 6.000
Log (Growth) ([3]; 0 hours, 15.625 PPM): 7.000
Log (Growth) ([3]; 0 hours, 31.25 PPM): 6.667
Log (Growth) ([3]; 0 hours, 62.5 PPM): 7.000
Log (Growth) ([3]; 0 hours, 125 PPM): 6.333
Log (Growth) ([3]; 0 hours, 250 PPM): 7.000
Log (Growth) ([3]; 0 hours, 500 PPM): 6.667
Log (Growth) ([3]; 1 hour, 15.625 PPM): 6.667
Log (Growth) ([3]; 1 hour, 31.25 PPM): 6.000
Log (Growth) ([3]; 1 hour, 62.5 PPM): 6.333
Log (Growth) ([3]; 1 hour, 125 PPM): 5.667
Log (Growth) ([3]; 1 hour, 250 PPM): 6.333
Log (Growth) ([3]; 1 hour, 500 PPM): 6.000
Log (Growth) ([3]; 4 hours, 15.625 PPM): 6.667
Log (Growth) ([3]; 4 hours, 31.25 PPM): 5.667
Log (Growth) ([3]; 4 hours, 62.5 PPM): 4.667
Log (Growth) ([3]; 4 hours, 125 PPM): 4.333
Log (Growth) ([3]; 4 hours, 250 PPM): 4.333
Log (Growth) ([3]; 4 hours, 500 PPM): 4.667
Log (Growth) ([3]; 24 hours, 15.625 PPM): 6.333
Log (Growth) ([3]; 24 hours, 31.25 PPM): 5.333
Log (Growth) ([3]; 24 hours, 62.5 PPM): 5.667
Log (Growth) ([3]; 24 hours, 125 PPM): 5.667
Log (Growth) ([3]; 24 hours, 250 PPM): 4.333
Log (Growth) ([3]; 24 hours, 500 PPM): 4.000
